# Measured values: patent publication US9303042B2, “Triazolothienopyrimidine compound inhibitors of urea transporters and methods of using inhibitors” (The Regents of the University of California, priority 2012, dated 2016)
# pIC50: −log10 of the molar value. Where two headings read alike, the source gives them in different places.
# How the values were obtained:
# human UT-B = target: T1, human UT-B (Homo sapiens, UniProt Q13336); experiment: Stopped-flow light scattering assay of erythrocyte urea transport, human erythrocytes; format: cell-based; settings: urea influx, 100 mM inwardly directed urea gradient
# T1 construct: endogenous in cells; host or cells: erythrocytes in human venous whole blood
# T1 sequence (Q13336 1-389): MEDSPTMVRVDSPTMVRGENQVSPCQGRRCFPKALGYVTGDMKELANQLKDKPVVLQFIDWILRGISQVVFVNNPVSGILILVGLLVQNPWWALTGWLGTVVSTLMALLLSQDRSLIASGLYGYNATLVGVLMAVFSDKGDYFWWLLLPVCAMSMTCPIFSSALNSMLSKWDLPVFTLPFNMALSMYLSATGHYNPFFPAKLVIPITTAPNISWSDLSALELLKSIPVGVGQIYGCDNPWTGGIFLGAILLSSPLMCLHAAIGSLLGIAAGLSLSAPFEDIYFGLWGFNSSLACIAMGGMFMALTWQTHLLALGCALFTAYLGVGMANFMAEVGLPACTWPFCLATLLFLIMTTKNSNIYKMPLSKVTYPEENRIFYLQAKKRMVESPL
# Procedure: Erythrocyte urea and water permeabilities were measured by stopped-flow light scattering using a Hi-Tech Sf-51 instrument (Wiltshire, UK). For measurement of urea permeability, dilutions of whole blood (mouse or human) in PBS (hematocrit ˜0.5%) were incubated with test compounds for 5 min and then subjected to a 100-mM inwardly directed urea gradient. After an initial osmotic shrinking phase, the kinetics of increasing cell volume caused by urea influx was measured as the time-course of 90° scattered light intensity at 530 nm, with increasing cell volume producing reduced scattered light intensity. Urea permeability and percentage inhibition were computed as described (see, e.g., Levin et al., FASEB J. supra, 2007)). In some experiments, different urea gradients (25-200 mM) were used, or inhibitor was added only to the erythrocyte-containing or urea-containing solutions. […] Osmotic water permeability was measured using a 100 mM gradient of sucrose.
# UT-B inhibition potency was assayed quantitatively by stopped-flow light scattering from the kinetics of urea influx in response to an inwardly directed urea gradient (see Materials and Methods above). […]
# Measurements were done using a Hi-Tech Sf-51 instrument (Wiltshire, UK). […] The kinetics of increasing cell volume caused by urea influx was measured as the time-course of 90° scattered light intensity at 530 nm. […]
# [1] = In vitro metabolic stability in hepatic microsomes; format: in vitro ADME, rat
# Procedure: Compounds, each at 5 μM, were incubated for specified times at 37° C. with rat liver microsomes (1 mg protein/ml; Sigma-Aldrich, St. Louis, Mo.) in potassium phosphate buffer (100 mM) containing 1 mM NADPH. The mixture was then chilled on ice, and 0.5 ml of ice-cold ethyl acetate was added.
# MDCK cells = experiment: MTT cytotoxicity assay; format: cell-based, canine; settings: up to 10 μM, 24 h
# UT-B = target: T2, UT-B (Mus musculus, UniProt Q8VHL0); experiment: Erythrocyte lysis assay of UT-B inhibition; format: cell-based; design: Screening was performed using mouse erythrocytes, which strongly express UT-B; endogenous in cells; host or cells: erythrocytes in whole blood of wild-type CD1 mice; settings: read-out: IC50
# T2 sequence (Q8VHL0 1-384): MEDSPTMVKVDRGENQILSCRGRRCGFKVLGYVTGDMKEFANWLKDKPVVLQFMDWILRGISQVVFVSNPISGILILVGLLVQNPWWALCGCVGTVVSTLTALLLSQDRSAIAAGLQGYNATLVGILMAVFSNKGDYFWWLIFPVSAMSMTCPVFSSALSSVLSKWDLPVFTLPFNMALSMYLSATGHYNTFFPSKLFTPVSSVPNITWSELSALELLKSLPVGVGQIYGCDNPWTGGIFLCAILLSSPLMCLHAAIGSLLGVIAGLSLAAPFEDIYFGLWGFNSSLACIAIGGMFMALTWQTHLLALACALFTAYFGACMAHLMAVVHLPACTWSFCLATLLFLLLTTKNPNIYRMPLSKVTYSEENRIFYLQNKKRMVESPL
# Summary of the method: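 Mouse erythrocytes (expressing UT-B and AQP1) subjected to an outward acetamide gradient; UT-B inhibition blocks acetamide efflux, causing swelling and lysis. Lysis quantified by absorbance at 710 nm within 5 min of hypo-osmolar shock.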
compound,measurement,setting,value
"CCc1ccc(S(=O)(=O)c2nnn3c2nc(NCc2cccs2)c2sccc23)cc1 [UTBinh-14, [3-(4-Ethyl-benzenesulfonyl)-thieno[2,3-e][1,2,3]triazolo[1,5-a]pyrimidin-5-yl]-thiophen-2-ylmethylamine]",pIC50,human UT-B,7.99
same,t1/2 for disappearance in hepatic microsomes,"[1]; hepatic microsomes, NADPH",approximately 2.8 min
same,% Remaining,[1]; parent molecule after 30 min incubation with rat liver microsomes,<5%
same,cytotoxicity,MDCK cells,no cytotoxicity
same,pIC50,"UT-B; Table 2, synthesized inhibitors, red blood cell lysis assay (n = 3), single-site saturation model",7.96
same,pIC50,UT-B; erythrocyte lysis assay,7.66
